pIC50: −log10 of the molar value.
Experiments:
PC3 (prostate) = test: In vitro cytotoxic activity (MTT) assay, PC3; type: cell-based; conditions: Homo sapiens, Prostate cell; PC3 (prostate) cells, exposed for 96 hours; read-out: IC50, 50% inhibition of cell proliferation
Experimental: (§1) Compounds 1-15 were screened for their in vitro cytotoxic activity utilizing a 3-(4,5-dimethyl-thiazol-2-yl)-2,5-diphenyltetrazolium bromide (MTT) assay against selected cancer human cell lines consisting of PC3 (prostate). HCT116 (colon), A375 (melanoma), H1299 (lung). MIAPaCa-2 (pancreas), HL60 (leukemia). MCF7 (breast), MDA-MB-231 (breast) (T. Mosmann, J. Immunol. Meth., 1983, 65, 55-63). The cells were cultured at 37° C. in RMPI1640 medium supplemented with 10% fetal bovine serum, 50 IU/mL penicillin, and 50 μg/mL streptomycin in a 5% CO2 incubator. All cells were sub-cultured 3 times/week by trypsinisation. Viable cells were seeded and allowed to adhere for 12 h before a test drug was added in 96-well plates at an initial density of 1.0×10^5 cells/mL. Tumour cell lines were separately exposed to various concentrations of the tested compounds followed by incubation at a temperature of 37° C. during 96 h inside a medium of fresh RMPI 1640. Cells were subsequently incubated at 37° C. using MTT at 0.5 mg/mL during 4 h. After removal of supernatant, formazan crystals were dissolved in isopropanol and the optical density was measured at 570 nm. CX-4945 was used as a positive control.

MCF7 (breast) = test: In vitro cytotoxic activity (MTT) assay, MCF7; type: cell-based; conditions: Homo sapiens; MCF7 (breast) cells, exposed for 96 hours; read-out: IC50, 50% inhibition of cell proliferation
Experimental: as §1

[1] = molecular target: T1, recombinant human CK2 (RRββ-holoenzyme) (Homo sapiens, UniProt P68400); test: CK2 Kinase Assay; type: biochemical; conditions: final ATP concentration 15 μM, 10 min at 30° C.; read-out: IC50 protein kinase CK2 activity
T1 construct: purchased Millipore
Experimental: CK2 Kinase Assay was conducted using the protocol as described in Pierre F. et al; J. Med. Chem. 2011, 54, 635-654. The tested compounds in aqueous solution were added at a volume of 10 μL to a reaction mixture comprising 10 μL of assay dilution buffer (ADB; 20 mM MOPS, pH 7.2, 25 mM β-glycerol phosphate, 5 mM EGTA, 1 mM sodium orthovanadate, and 1 mM dithiothreitol), 10 μL of substrate peptide (RRRDDDSDDD, dissolved in ADB at a concentration of 1 mM), 10 μL of recombinant human CK2 (RRββ-holoenzyme, 25 ng dissolved in ADB; Millipore). Reactions were initiated by the addition of 10 μL of ATP solution (90% 75 mMMgCl2, 75 μM ATP (final ATP concentration:15 μM) dissolved in ADB; 10% [γ-33P] ATP (stock 1 mCi/100 μL; 3000 Ci/mmol (Perkin-Elmer) and maintained for 10 min at 30° C. The reactions were quenched with 100 μL of 0.75% phosphoric acid and then transferred to and filtered through a phosphor cellulose filter plate (Millipore). After washing each well five times with 0.75% phosphoric acid, the plate was dried under vacuum for 5 min and, following the addition of 15 μL of scintillation fluid to each well, the residual radioactivity was measured using a Wallac luminescence counter. The IC50 values were derived from eight concentrations of test inhibitors.

HL60 (leukemia) = test: In vitro cytotoxic activity (MTT) assay, HL60; type: cell-based; conditions: Homo sapiens, HL-60; HL60 (leukemia) cells, exposed for 96 hours; read-out: IC50, 50% inhibition of cell proliferation
Experimental: as §1

A375 (melanoma) = test: In vitro cytotoxic activity (MTT) assay, A375; type: cell-based; conditions: Homo sapiens, A-375; A375 (melanoma) cells, exposed for 96 hours; read-out: IC50, 50% inhibition of cell proliferation
Experimental: as §1

MDA-MB-231 (breast) = test: In vitro cytotoxic activity (MTT) assay, MDA-MB-231; type: cell-based; conditions: Homo sapiens; MDA-MB-231 (breast) cells, exposed for 96 hours; read-out: IC50, 50% inhibition of cell proliferation
Experimental: as §1

H1299 (lung) = test: In vitro cytotoxic activity (MTT) assay, H1299; type: cell-based; conditions: Homo sapiens, NCI-H1299; H1299 (lung) cells, exposed for 96 hours; read-out: IC50, 50% inhibition of cell proliferation
Experimental: as §1

MIAPaCa-2 (pancreas) = test: In vitro cytotoxic activity (MTT) assay, MIAPaCa-2; type: cell-based; conditions: Homo sapiens, MIA PaCa-2; MIAPaCa-2 (pancreas) cells, exposed for 96 hours; read-out: IC50, 50% inhibition of cell proliferation
Experimental: as §1

HCT116 (colon) = test: In vitro cytotoxic activity (MTT) assay, HCT116; type: cell-based; conditions: Homo sapiens, HCT-116; HCT116 (colon) cells, exposed for 96 hours; read-out: IC50, 50% inhibition of cell proliferation
Experimental: as §1

T1 sequence (P68400 whole entry): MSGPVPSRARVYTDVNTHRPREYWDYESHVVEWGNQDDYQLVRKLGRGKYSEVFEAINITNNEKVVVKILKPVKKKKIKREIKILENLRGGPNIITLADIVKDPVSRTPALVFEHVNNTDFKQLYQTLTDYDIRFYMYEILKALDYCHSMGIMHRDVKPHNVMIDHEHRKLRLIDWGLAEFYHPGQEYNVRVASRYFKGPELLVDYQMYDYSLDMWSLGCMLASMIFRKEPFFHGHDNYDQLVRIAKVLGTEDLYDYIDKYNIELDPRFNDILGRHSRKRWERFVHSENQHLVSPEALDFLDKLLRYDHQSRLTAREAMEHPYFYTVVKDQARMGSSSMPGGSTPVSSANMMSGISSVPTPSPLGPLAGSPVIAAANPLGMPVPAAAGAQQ
T1 sequence (P67870 whole entry partner): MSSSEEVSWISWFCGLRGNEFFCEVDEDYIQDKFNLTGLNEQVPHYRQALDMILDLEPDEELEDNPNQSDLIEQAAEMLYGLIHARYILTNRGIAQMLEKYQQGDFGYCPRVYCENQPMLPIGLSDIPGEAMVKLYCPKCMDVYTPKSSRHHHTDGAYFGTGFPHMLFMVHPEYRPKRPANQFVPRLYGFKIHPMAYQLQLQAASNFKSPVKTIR

O=C(O)c1ccc2c(c1)c(Nc1cccc(Cl)c1)nc1[nH]c3ccncc3c12 [Compound 1, 5-((3-chlorophenyl)amino)-7H-pyrido[3′,4′:4,5]pyrrolo[2,3-c]isoquinoline-3-carboxylic acid]
pIC50 (PC3 (prostate)): 5.96 | pIC50 (MCF7 (breast)): 5.44 | pIC50 [1]: 7.07 | pIC50 (HL60 (leukemia)): 5.37 | pIC50 (A375 (melanoma)): 5.48 | pIC50 (MDA-MB-231 (breast)): 5.36 | pIC50 (H1299 (lung)): 6.05 | pIC50 (MIAPaCa-2 (pancreas)): 5.92 | pIC50 (HCT116 (colon)): 5.70
